# Data reported in patent publication US7851592B2, “Compositions and methods for inhibiting G2 cell cycle arrest and sensitizing cells to DNA damaging agents” (CanBas Co. Ltd., priority 1999, dated 2010).
# Where no end group is shown, it is not given here.
# Experiments:
# Jurkat cells [1] = assay: FACS DNA content of colchicine-treated Jurkat cells with oligopeptides (Example 3); type: cell-based, human; conditions: FIG. 7; colchicine 2.5 μg/ml
# Method: Other screening methods can be used to identify selective inhibitors of the G2 cell cycle checkpoint. For, the cells are simultaneously treated with an oligopeptide “candidate phosphorylation substrate” and an M phase checkpoint activator, such as colchicine or nocodazol. The DNA content of the cells are analyzed some 10 to 48 hours after the treatment as described above.
# In another experiment, an M phase checkpoint activator, colchicine, was used instead of bleomycin: colchicine at 2.5 μg/ml; colchicine at 2.5 μg/ml and the peptide “4aa”; colchicine at 2.5 μg/ml and the peptide AAA (Table 1); colchicine at 2.5 μg/ml and the peptide YNP (Table 1), and no treatment.
# Jurkat cells [2] = assay: FACS DNA content of bleomycin-treated Jurkat cells with oligopeptides (Example 3); type: cell-based, human; conditions: FIG. 6, bleomycin 20 μg/ml, 0, 6, 12, 24 hours
# Method: The cells with the deficient cell cycle G1 checkpoint (such as a human leukemia-derived cell line Jurkat) were treated with a DNA damaging treatment. As the DNA damaging treatment, the cells were treated with bleomycin or other anti-cancer drugs. These drugs were added to the cell culture medium. Alternatively, the cells were irradiated with gamma irradiation. Peptides were added to these cells and the amount of DNA was determined some 10 to 48 hours after the DNA damage. The harvested cells were re-suspended with the solution that includes propidium iodide, RNase and NP-40 and analyzed by flow cytometer. […]
# Jurkat cells were cultured in 10% fetal calf serum with a medium (RPMI 1640) at 37° C./5% CO2 with: bleomycin at 20 μg/ml; bleomycin at 20 μg/ml and the peptide “4aa” (amino acid sequence is GGSPSM (SEQ ID NO: 1931)); bleomycin at 20 μg/ml and the peptide AAA (Table 1); bleomycin at 20 μg/ml and the peptide YNP (Table 1). The amount of DNA was analyzed at 0, 6, 12, 24 hours after the addition of ten microgram of bleomycin with or without the oligopeptides “4aa,” “YNP” and “AAA.” The DNA quantity was analyzed by a flow cytometer (FACS) after the addition of a solution comprising propidium iodide, RNase and NP-40. […]
# [3] = system: PHA blasts (mitogen-activated normal human T lymphocytes); assay: FACS analysis of PHA blasts treated with bleomycin and peptides; type: cell-based; conditions: FIG. 3D; for cell cycle pattern of PHA blasts, peptide in addition to bleomycin: 20 hr
# Method: (§1) Cell-cycle analysis. The cell cycle status of the cells treated with peptides and/or bleomycin or colchicine was analyzed by FACS, as described by Kawabe (1997) Nature 385:454-458. In brief, two million Jurkat cells were re-suspended and incubated in 300 μl Krishan's solution (0.1% Sodium citrate, 50 μg/ml PI, 20 μg/ml RNase A and 0.5% NP-40; see supra) for 1 hr at 4° C. and analyzed by FACScan™ (Beckton Dickinson, Mountain View, Calif.) with the program CELLQuest™ (Beckton Dickinson).
# (§2) The effect of TAT-S216A and TAT-S216 on the cell death induced by bleomycin was examined. The results are shown in FIG. 3; Trypan blue dye exclusion analysis of Jurkat cells treated with bleomycin (A) or colchicine (B) with or without indicated peptides. Bars, SD Vertical axis, % viability of the cells; Bleo 5, bleomycin 5 μg/ml; Bleo 10, bleomycin 10 μg/ml; colchicine, 5 μg/ml; TAT-S216 or TAT-S216A, 10 μM of indicated peptide. […] C, survival analysis of PHA blasts treated with bleomycin and peptides. Vertical axis, % viability of the cells determined by trypan blue dye exclusion analysis; horizontal axis, time in hours. Bleo 5, bleomycin 5 μg/ml; Bleo 10, bleomycin 10 μg/ml; TAT-S216 or TAT-S216A, 10 μM of indicated peptide. D, FACS analysis of the cells treated with bleomycin and peptides. PHA-blasts were treated with bleomycin with or without peptides for 20 hr. Vertical axis, cell number; horizontal axis, DNA content indicated by propidium iodide staining.
# In order to confirm the specificity of the effect of these peptides on cancer cells in which the G1 checkpoint is abrogated; the effect of these peptides on normal human cells was investigated. Mitogen-activated normal human T lymphocytes (PHA blasts) were prepared by stimulating peripheral blood mononuclear cells obtained from a healthy donor with PHA for 1 week. These cells were treated with bleomycin (5 and 10 μg/ml) in the presence or absence of either TAT-S216A or TAT-S216.
# Jurkat cells [4] = assay: Trypan blue dye exclusion analysis of Jurkat cells treated with bleomycin or colchicine with or without peptides; type: cell-based; conditions: for effect on cytotoxicity by colchicine: FIG. 3B, colchicine 5 μg/ml
# Method: as §2
# [5] = system: histone H1 kinase activity; assay: Histone H1 kinase assay on lysates of treated Jurkat cells; type: cell-based, human; conditions: FIG. 2B, 6 hr
# Method: Histone H1 kinase assay. Ten million Jurkat cells were treated with hydroxyurea (100 μg/ml), bleomycin (10 μg/ml), or colchicine (5 μg/ml) with or without addition of TAT-S216A, TAT-S216 or TAT-Control (10 μM) for 6 hr. The cells were washed in cold PBS and lysed at 4° C. in 1 ml of buffer A (50 mM Tris pH 8, 2 mM DTT, 5 mM EDTA, 100 mM NaCl, 0.5% NP40, 20 mM Na3V04, 50 mM NaF, 4 μM Okadaic acid, 5 μg/ml aprotinin, 5 μg/ml pepstatin A and 5 μg/ml leupeptin.). Twenty microliter of p13^suc1 agarose beads (Upstate Biotechnology., Saranac, N.Y.) were added to the cleared lysates, incubated for 4 hr at 4° C., and washed five times with buffer A without 5 mM EDTA, 20 mM Na3V04, 50 mM NaF, 4 μM Okadaic acid. Histone HI kinase activity on the beads were analyzed by using Cdc2 kinase assay kit (Upstate Biotechnology) with [γ-^32P] ATP, followed by 12% SDS-PAGE electrophoresis, and autoradiographed to detect the phosphorylated Histone H1.
# (§3) The cell cycle status of the cells treated with TAT-S216A or TAT-S216 upon the DNA damage-induced G2 arrest was analyzed by FACS analysis. Histone H1 kinase activities of theses cells were simultaneously monitored. […] Results are shown in FIG. 2: abrogation of DNA damage-induced G2 arrest by TAT-S216A and TAT-S216 peptides. FIG. 2A, FACS analysis of Jurkat cells treated with bleomycin and peptides. Cells were treated with bleomycin (10 μg/ml) with or without peptides (10 μM) for 20 hr. B, histone H1 kinase analysis. Cell lysates were prepared from the cells treated with the indicated reagent for 6 hr. Concentrations used were: hydroxyurea (HU), 100 μg/ml; bleomycin (Bleo), 10 μg/ml; colchicine, 5 μg/ml; TAT-S216A and TAT-S216, 10 μM. C, FACS analysis of colchicine -and peptide-treated cells. Jurkat cells were treated with colchicine (5 μg/ml) with or without peptide (10 μM) for 20 hr.
# Jurkat cells [6] = assay: Cell-cycle analysis by FACS, DNA damage-induced G2 arrest; type: cell-based, human; conditions: bleomycin 10 μg/ml
# Method: as §1, §3
# hChk1 = target: T1, hChk1 (Homo sapiens, UniProt O14757, I471V); assay: In vitro immune complex kinase assay, Cdc25C phosphorylation by purified hChk1; type: biochemical; conditions: FIG. 1B; peptide 10 μM; substrate 1 μM
# T1 construct: made in house; host or cells: insect cells, recombinant baculovirus (lysates provided by Dr. Makoto Nakanishi)
# T1 sequence (O14757 1-476 I471V): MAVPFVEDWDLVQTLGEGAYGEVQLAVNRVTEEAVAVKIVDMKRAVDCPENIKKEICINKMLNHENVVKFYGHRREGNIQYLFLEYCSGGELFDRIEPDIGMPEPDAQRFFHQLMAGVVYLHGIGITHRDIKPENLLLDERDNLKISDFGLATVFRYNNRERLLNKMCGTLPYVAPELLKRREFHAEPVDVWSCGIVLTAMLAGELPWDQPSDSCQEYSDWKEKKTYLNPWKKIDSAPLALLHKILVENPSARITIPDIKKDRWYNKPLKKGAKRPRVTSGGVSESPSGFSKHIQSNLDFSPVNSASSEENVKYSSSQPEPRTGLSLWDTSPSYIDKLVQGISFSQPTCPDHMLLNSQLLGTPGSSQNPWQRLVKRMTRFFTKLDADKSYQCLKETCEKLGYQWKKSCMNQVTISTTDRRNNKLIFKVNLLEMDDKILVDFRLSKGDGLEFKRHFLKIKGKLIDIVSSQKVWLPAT
# Method: Kinase assay. HA-tagged hChk1 (SEQ ID NO:3) and c-myc-tagged Chk2/HuCds1 (SEQ ID NO:4) expressed in insect cells using recombinant baculovirus (see, e.g., Kaneko (1999) Oncogene 18:3673-3681) were purified by immunoprecipitation using anti-HA or anti-c-myc antibodies and protein G-Sepharose. Immune complex kinase reaction was done in PBS with 1 mM DTT, 1 mM MgCl2 and 100 μCi of [γ-^32P] ATP (Amersham; 6000 Ci/mmol) plus purified 1 μM GST-Cdc25C or 10 μM Cdc25C peptide (amino acid 211 to 221 of Cdc25C (SEQ ID NO: 2); […], Sawady Technology Co.) substrates at 30° C. for 15 min in the presence of 10 μM TAT-S216, TAT-S216A or TAT-Control. After the reaction, samples were separated in 12% or 15% SDS-PAGE and autoradiographed to detect GST-Cdc25C or peptide phosphorylation.
# The results are shown in FIG. 1: TAT-S216A and TAT-S216 peptides inhibit hChk1 and Chk2/HuCds1 kinase activities in vitro. FIG. 1A. sequences of the peptides. FIG. 1B, in vitro phosphorylation analysis using GST-Cdc25C and purified hChk1. GST-Cdc25C (amino acid 200-256) that was produced in E. coli (DH5α) was used as substrate (1 μM). Immune complex kinase reaction was done in the presence of TAT-S216A (10 μM) or TAT-S216 (10 μM). FIG. 1C, in vitro phosphorylation analysis of hChk1 and Chk2/HuCds1 using synthesized Cdc25C peptide corresponding amino acid 211-221 of Cdc25C ([…] (SEQ ID NO: 2)) as a substrate (10 μM).
# [7] = system: PHA blasts (mitogen-activated normal human T lymphocytes); assay: Trypan blue dye exclusion survival analysis of PHA blasts treated with bleomycin and peptides; type: cell-based; conditions: FIG. 3C; bleomycin 5 and 10 μg/ml; peptide 10 μM
# Method: Cell culture and plasmids. A human T-cell leukemia-derived cell line, Jurkat, was cultured in RPMI 1640 (Sigma) supplemented with 10% fetal calf serum. (IBL: Immuno-Biological Laboratories, Gunma, Japan) at 37° C./5% CO2. Human pancreatic epitheloid carcinoma-derived cell lines, MIA PaCa2 and PANC1, were cultured in Eagle's MEM (IWAKI, Chiba, Japan) and Dulbecco's modified Eagle's medium with 4 mM […] (Sigma) and 1.0 mM sodium pyruvate (Life Technologies, Inc., Grand Island, N.Y.), respectively, and supplemented with 10% fetal calf serum at 37° C./5% CO2. Normal human peripheral blood lymphocytes were collected by Ficoll-Paque (Amersham Pharmacia Biotech) density gradient. Two million cells/ml were cultured in RPMI 1640 supplemented with 10% fetal calf serum at 37° C./5% CO2 in the presence of 5 μg/ml PHA (Life Technologies, Inc.) for a week. Baculovirus lysates that include HA-tagged hChk1 (SEQ ID NO:3) or c-myc-tagged Chk2/HuCds1 (SEQ ID NO:4) and plasmid for GST-Cdc25C (amino, acid 200-256) were made as described in Matsuoka (1998) Science 282:1893-1897, and provided by Dr. Makoto Nakanishi (Department of Biochemistry, Nagoya City University.
# The effect of TAT-S216A and TAT-S216 on the cell death induced by bleomycin was examined. […] Vertical axis, % viability of the cells determined by trypan blue dye exclusion analysis; horizontal axis, time in hours. […]
substance,measurement,setting,value
Y G G P G G G G N (YGGPGGGGN) [YPN],accumulation of colchicine-treated cells at the G2/M phase,Jurkat cells [1],"None of the above tested oligopeptides (Table 1), including, YPN, affected the accumulation"
same,G2 checkpoint / accumulation of bleomycin-treated cells at G2/M,Jurkat cells [2],specifically abrogated the cell cycle at the G2 checkpoint
same,G2 checkpoint / accumulation of bleomycin-treated cells at G2/M,Jurkat cells [2]; listed as YNP,abrogated the G2 checkpoint
Bleomycin [reference compound],cell cycle arrest of PHA blasts by bleomycin alone,[3]; bleomycin 5 μg/ml,arrested at G1 and S phase but not G2
same,"Jurkat cells killed, bleomycin alone","Jurkat cells [4]; FIG. 3A, bleomycin at 5 or μ10 g/ml",27-30%
same,histone H1 kinase activity on treatment with drug alone,[5]; bleomycin 10 μg/ml or hydroxyurea 100 μg/ml,decreased
same,cell cycle arrest of Jurkat cells by bleomycin alone,Jurkat cells [6],arrested exclusively at G2
TAT-Control: control peptide: TAT domain with Cdc25C portion partially deleted and substituted with glycine (GGRSPAMPE) (YGRKKRRQRRRGGRSPAMPE),effect on bleomycin-induced cell death / viability of bleomycin-treated Jurkat cells,"Jurkat cells [4]; FIG. 3A, bleomycin 5 or 10 μg/ml, peptide 10 μM",did not affect the viability
same,histone H1 kinase activity on bleomycin treatment in the presence of peptide,"[5]; bleomycin 10 μg/ml, peptide 10 μM",did not affect
same,phosphorylation of GST-Cdc25C (amino acid 200-256) by baculovirus-produced hChk1,hChk1,did not inhibit
same,G2 arrest in response to bleomycin,"Jurkat cells [6]; FIG. 2A, peptide 10 μM, 20 hr",arrested at G2 similarly to the cells treated with bleomycin alone
YGRKKRRQRRRLYRSPAMPENL [TAT-S216A],"cell cycle pattern of PHA blasts, peptide in addition to bleomycin",[3],no further alteration of cell cycle pattern was observed
same,effect on cytotoxicity by colchicine,Jurkat cells [4]; peptide 10 μM,did not affect the cytotoxicity by colchicine
same,effect on cytotoxicity of bleomycin to normal cells (PHA blasts),[7],did not increase the cytotoxicity of bleomycin to normal cells
YGRKKRRQRRRLYRSPSMPENL [TAT-S216],"cell cycle pattern of PHA blasts, peptide in addition to bleomycin",[3],no further alteration of cell cycle pattern was observed
same,effect on cytotoxicity by colchicine,Jurkat cells [4]; peptide 10 μM,did not affect the cytotoxicity by colchicine
same,effect on cytotoxicity of bleomycin to normal cells (PHA blasts),[7],did not increase the cytotoxicity of bleomycin to normal cells
